Results reported in patent EP4516281A1, “COSMETIC COMPOSITIONS” (The Boots Company plc, priority 2023, dated 2025).

system: mushroom tyrosinase; test: Tyrosinase inhibition screening (L-DOPA oxidation, absorbance at 470 nm); assay type: biochemical; settings: Concentration 0.1%; single compounds
Source text: The tyrosinase inhibition may be used to determine the tyrosinase inhibition ability of the compounds. The test comprises adding the test compound to a solution of L-dihydroxyphenylalanine (L-(DOPA)) and mushroom tyrosinase. L-(DOPA) is converted to […] by the mushroom tyrosinase, causing a brown colour to form. Inhibition of this reaction prevents the brown colour formation. The lighter the colour at the end of the reaction, the stronger is the inhibitory effect of the active. Absorbance data may be collected using a plate reacted set up to have a kinetic read every 1 minute for 30 minutes, where absorbance is read at 470 nm.

Molecule | Tyrosinase Inhibition (%)
O=C(O)C(O)c1ccccc1 (stereo not shown) [C, Mandelic acid] | 80.279%
C=C(C)[C@@H]1CCC(C)=C[C@H]1c1c(O)cc(CCCCC)cc1O [F, Cannabidiol isolate (CBD)] | 9.134%
CCCCCCCCCCCCCCC[C@@H](O)[C@@H](N)CO [G, Sphinganine] | -5.78%
Feruloyl oligopeptide-33 | 41.765%
